Test [1] addresses T1, HCV polymerase (NS5B) type 1b (Hepatitis C virus genotype 1b, UniProt P26663).
T1 construct: a region encoding NS5B (J Virol 1991 March, 65(3), 1105-13, 544 amino acids after deletion of 47 amino acids on the C-terminal); 6xHis (C); made in house; host or cells: Escherichia coli
The test is described as follows: Assay of enzyme (HCV polymerase) inhibitory activity, type 1b enzyme. It is filed as biochemical, HCV BK strain (type 1b). The conditions noted are these: HCV polymerase inhibitory activity IC50, 1b, type 1b enzyme. The method in brief: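 Rxn: NS5B 1b (BK, ΔC47, His6) 0.5 μg/ml; substrate RNA 5 μg/ml; ATP/GTP/CTP 50 μM, UTP 2 μM + [5,6-3H]UTP; 20 mM Tris pH 7.5, 5 mM MgCl2, 50 mM NaCl, 1 mM EDTA/DTT. 25 °C, 60 min. Stop with TCA/pyrophosphate, filter, scintillation count; IC50 vs. untreated.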

The target in test [2] is T2, HCV polymerase (NS5B) type 1a (Hepatitis C virus genotype 1a, UniProt P26664).
T2 construct: made in house; host or cells: Escherichia coli (by the 'similar method' of the 1b enzyme)
The test is described as follows: Assay of enzyme (HCV polymerase) inhibitory activity, type 1a enzyme. To be noted: HCV polymerase inhibitory activity IC50, 1a, type 1a enzyme. It is filed as biochemical, HCV type 1a (cloned from the blood of patients). The method in brief: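 NS5B Δ47 C-term His6 (type 1a, 1.5 μg/ml); substrate RNA 5 μg/ml; ATP/GTP/CTP 50 μM, UTP 2 μM + [5,6-3H]UTP; Tris pH 7.5, MgCl2 5 mM; 25° C, 60 min. TCA/pyrophosphate stop, GF/B filter, scintillation. IC50 vs no-compound control.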

pIC50: −log10 of the molar value.

Usually pIC50 stands for −log10 of the IC50, conventionally taken in molar units. A lower pIC50 goes with a large IC50.

In the case of `CCN(CC)c1nc(Br)nc2nc(N3CCN(S(=O)(=O)c4ccc(C(F)(F)F)cc4)[C@@H](C(=O)NCc4ccc(OC(F)(F)F)cc4)C3)sc12` [Example 974, (R)-4-(5-bromo-7-diethylamino-thiazolo[4,5-d]pyrimidin-2-yl)-1-(4-trifluoromethyl-benzenesulfonyl)-piperazine-2-carboxylic acid 4-trifluoromethoxy-benzylamide], the negative-log IC50 (pIC50) in test [1] and in test [2] was < 6.00 throughout.
For the compound `O=C(NCc1ccc(OC(F)(F)F)cc1)[C@H]1CN(c2nc3nc(C4CC4)ncc3s2)CCN1S(=O)(=O)c1ccc(OC(F)(F)F)cc1` [Example 975, (R)-4-(5-cyclopropyl-thiazolo[4,5-d]pyrimidin-2-yl)-1-(4-trifluoromethoxy-benzenesulfonyl)-piperazine-2-carboxylic acid 4-trifluoromethoxy-benzylamide], the pIC50 in test [1] and in test [2] was > 7.00 throughout.
For `O=C(NCc1ccc(C2CC2)cc1)[C@H]1CN(c2nc3ncncc3s2)CCN1S(=O)(=O)c1ccc(OC(F)(F)F)cc1` [Example 976, (R)-4-thiazolo[4,5-d]pyrimidin-2-yl-1-(4-trifluoromethoxy-benzenesulfonyl)-piperazine-2-carboxylic acid 4-cyclopropyl-benzylamide], the pIC50 in test [1] and in test [2] was > 7.00 throughout.
Regarding `O=C(NCc1ccc(OC(F)(F)F)cc1)[C@H]1CN(c2nn3ccc(=O)nc3s2)CCN1S(=O)(=O)c1ccc(OC(F)(F)F)cc1` [Example 977, (R)-4-(7-oxo-7H-[1,3,4]thiadiazolo[3,2-a]pyrimidin-2-yl)-1-(4-trifluoromethoxy-benzenesulfonyl)-piperazine-2-carboxylic acid 4-trifluoromethoxy-benzylamide], the pIC50 in test [1] and in test [2] was > 7.00 each time.
On to `CC(=O)c1sc(N2CCN(S(=O)(=O)c3ccc(OC(F)(F)F)cc3)[C@@H](C(=O)NCc3ccc(OC(F)(F)F)cc3)C2)nc1C` [Example 978, (R)-4-(5-acetyl-4-methyl-thiazol-2-yl)-1-(4-trifluoromethoxy-benzenesulfonyl)-piperazine-2-carboxylic acid 4-trifluoromethoxy-benzylamide], for which the pIC50 in test [1] and in test [2] was > 7.00 in each case.
On to `NC(=O)c1ncc2sc(N3CCN(S(=O)(=O)c4ccc(OC(F)(F)F)cc4)[C@@H](C(=O)NCc4ccc(OC(F)(F)F)cc4)C3)nc2n1` [Example 979, 2-[(R)-4-(4-trifluoromethoxy-benzenesulfonyl)-3-(4-trifluoromethoxy-benzylcarbamoyl)-piperazin-1-yl]-thiazolo[4,5-d]pyrimidine-5-carboxylic acid amide], for which the negative-log IC50 (pIC50) in test [1] and in test [2] was > 7.00 in each case.
As to `Cc1nn(C)c2nc(N3CCN(S(=O)(=O)c4ccc(OC(F)(F)F)cc4)[C@@H](C(=O)NCc4ccc(OC(F)(F)F)cc4)C3)sc12` [Example 980, (R)-4-(1,3-dimethyl-1H-pyrazolo[3,4-d]thiazol-5-yl)-1-(4-trifluoromethoxy-benzenesulfonyl)-piperazine-2-carboxylic acid 4-trifluoromethoxy-benzylamide], the pIC50 in test [1] and in test [2] was > 7.00 each time.
For the compound `O=C(NCc1ccc(OC(F)(F)F)cc1)[C@H]1CN(c2nc3nc(C(F)(F)F)ncc3s2)CCN1S(=O)(=O)c1ccc(C(F)(F)F)cc1` [Example 981, (R)-1-(4-trifluoromethyl-benzenesulfonyl)-4-(5-trifluoromethyl-thiazolo[4,5-d]pyrimidin-2-yl)-piperazine-2-carboxylic acid 4-trifluoromethoxy-benzylamide], the negative logarithm of the IC50 (pIC50) in test [1] and in test [2] was > 7.00 each time.
As for `Cc1nc(N)c2sc(N3CCN(S(=O)(=O)c4ccc(OC(F)(F)F)cc4)[C@@H](C(=O)NCc4ccc(OC(F)(F)F)cc4)C3)nc2n1` [Example 982, (R)-4-(7-amino-5-methyl-thiazolo[4,5-d]pyrimidin-2-yl)-1-(4-trifluoromethoxy-benzenesulfonyl)-piperazine-2-carboxylic acid 4-trifluoromethoxy-benzylamide], the pIC50 in test [1] and in test [2] was > 7.00 each time.
In the case of `O=C(NCc1ccc(OC(F)(F)F)cc1)[C@H]1CN(c2nc3nc(C4CC4)ncc3s2)CCN1S(=O)(=O)c1ccc(C(F)(F)F)cc1` [Example 983, (R)-4-(5-cyclopropyl-thiazolo[4,5-d]pyrimidin-2-yl)-1-(4-trifluoromethyl-benzenesulfonyl)-piperazine-2-carboxylic acid 4-trifluoromethoxy-benzylamide], the negative-log IC50 (pIC50) in test [1] and in test [2] was > 7.00 in each case.
On to `CC(C)c1ncc2sc(N3CCN(S(=O)(=O)c4ccc(OC(F)(F)F)cc4)[C@@H](C(=O)NCc4ccc(OC(F)(F)F)cc4)C3)nc2n1` [Example 984, (R)-4-(5-isopropyl-thiazolo[4,5-d]pyrimidin-2-yl)-1-(4-trifluoromethoxy-benzenesulfonyl)-piperazine-2-carboxylic acid 4-trifluoromethoxy-benzylamide], for which the pIC50 in test [1] and in test [2] was > 7.00 throughout.
`O=C(NCc1ccc(OC(F)(F)F)cc1)[C@H]1CN(c2nc3c(Cl)nncc3s2)CCN1S(=O)(=O)c1ccc(OC(F)(F)F)cc1` [Example 985, (R)-4-(4-chloro-thiazolo[4,5-d]pyridazin-2-yl)-1-(4-trifluoromethoxy-benzenesulfonyl)-piperazine-2-carboxylic acid 4-trifluoromethoxy-benzylamide]: the pIC50 in test [1] and in test [2] was > 7.00 throughout.
Take `Cc1nnc2sc(N3CCN(S(=O)(=O)c4ccc(OC(F)(F)F)cc4)[C@@H](C(=O)NCc4ccc(OC(F)(F)F)cc4)C3)nn2c1=O` [Example 986, (R)-4-(3-methyl-4-oxo-4H-[1,3,4]thiadiazolo[2,3-c][1,2,4]triazin-7-yl)-1-(4-trifluoromethoxy-benzenesulfonyl)-piperazine-2-carboxylic acid 4-trifluoromethoxy-benzylamide]: the negative logarithm of the IC50 (pIC50) in test [1] and in test [2] was > 7.00 throughout.
In the case of `O=C(NCc1ccc(OC(F)(F)F)cc1)[C@H]1CN(c2nc3nnncc3s2)CCN1S(=O)(=O)c1ccc(OC(F)(F)F)cc1` [Example 987, (R)-4-thiazolo[4,5-d][1,2,3]triazin-6-yl-1-(4-trifluoromethoxy-benzenesulfonyl)-piperazine-2-carboxylic acid 4-trifluoromethoxy-benzylamide], the pIC50 in test [1] and in test [2] was > 7.00 throughout.
As for `O=C(CC(=O)N1CCN(S(=O)(=O)c2ccc(OC(F)(F)F)cc2)[C@@H](C(=O)NCc2ccc(OC(F)(F)F)cc2)C1)Nc1nnc(Br)s1` [Example 988, (R)-4-[2-(5-bromo-[1,3,4]thiadiazol-2-ylcarbamoyl)-acetyl]-1-(4-trifluoromethoxy-benzenesulfonyl)-piperazine-2-carboxylic acid 4-trifluoromethoxy-benzylamide], the pIC50 in test [1] and in test [2] was < 6.00 throughout.
As to `O=C(NCc1cc2ccccn2c1)[C@H]1CN(c2nc3ncncc3s2)CCN1S(=O)(=O)c1ccc(OC(F)(F)F)cc1` [Example 989, (R)-4-thiazolo[4,5-d]pyrimidin-2-yl-1-(4-trifluoromethoxy-benzenesulfonyl)-piperazine-2-carboxylic acid (indolizin-2-ylmethyl)-amide], the negative-log IC50 (pIC50) in test [1] and in test [2] was > 7.00 in each case.
For the compound `CNC(=O)c1cc(=O)nc2sc(N3CCN(S(=O)(=O)c4ccc(OC(F)(F)F)cc4)[C@@H](C(=O)NCc4ccc(OC(F)(F)F)cc4)C3)nn12` [Example 990, 7-oxo-2-[(R)-4-(4-trifluoromethoxy-benzenesulfonyl)-3-(4-trifluoromethoxy-benzylcarbamoyl)-piperazin-1-yl]-7H-[1,3,4]thiadiazolo[3,2-a]pyrimidine-5-carboxylic acid methylamide], the pIC50 in test [1] and in test [2] was > 7.00 in each case.
`CC(C)c1ncc2sc(N3CCN(S(=O)(=O)c4ccc(C(F)(F)F)cc4)[C@@H](C(=O)NCc4ccc(OC(F)(F)F)cc4)C3)nc2n1` [Example 991, (R)-4-(5-isopropyl-thiazolo[4,5-d]pyrimidin-2-yl)-1-(4-trifluoromethyl-benzenesulfonyl)-piperazine-2-carboxylic acid 4-trifluoromethoxy-benzylamide]: the pIC50 in test [1] and in test [2] was > 7.00 in each case.
In the case of `O=C(NCc1ccc(OC(F)(F)F)cc1)[C@H]1CN(c2nc3nc(CC4CC4)ncc3s2)CCN1S(=O)(=O)c1ccc(OC(F)(F)F)cc1` [Example 992, (R)-4-(5-cyclopropylmethyl-thiazolo[4,5-d]pyrimidin-2-yl)-1-(4-trifluoromethoxy-benzenesulfonyl)-piperazine-2-carboxylic acid 4-trifluoromethoxy-benzylamide], the pIC50 in test [1] and in test [2] was > 7.00 in each case.
As to `CCN(CC)c1nc2nc(Cl)nc(N3CCN(S(=O)(=O)c4ccc(OC(F)(F)F)cc4)[C@@H](C(=O)NCc4ccc(OC(F)(F)F)cc4)C3)c2s1` [Example 993, (R)-4-(5-chloro-2-diethylamino-thiazolo[4,5-d]pyrimidin-7-yl)-1-(4-trifluoromethoxy-benzenesulfonyl)-piperazine-2-carboxylic acid 4-trifluoromethoxy-benzylamide], the pIC50 in test [1] and in test [2] was < 6.00 in each case.

Source of the values: patent US8017612B2, “Piperazine compound and use thereof as a HCV polymerase inhibitor” (priority 2006, dated 2011).
